Source: ChEMBL document CHEMBL1201862, “PubChem BioAssay data set” (2004)
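Dose response: 5 concentrations. Exposure: 48 h. Format: 96-well plates. Endpoint: linear interpolation; highest concentration if not reached. GI50: concentration for 50% inhibition of growth.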 The source made the active and inactive calls. No stated cut-off is given here; in the data, active = GI50 up to about 1.1 µM and inactive = higher.

How the values were obtained:
Experiment in all cases: NCI tumour cell line growth inhibition, 48 h
[1] = system: SF-539
[2] = system: DMS-114
[3] = system: UACC-62
[4] = system: SF-295
[5] = system: CCRF-CEM
[6] = system: RPMI-8226
[7] = system: SK-MEL-28
[8] = system: NCI-H23
[9] = system: IGROV-1
[10] = system: LOX IMVI
[11] = system: A498
[12] = system: EKVX
[13] = system: HL-60
[14] = system: OVCAR-3
[15] = system: CAKI-1
[16] = system: OVCAR-8
[17] = system: Hs-578T
[18] = system: PC-3
[19] = system: MCF7
[20] = system: MDA-MB-435

Measured: GI50

COC(=O)[C@@]12C(=O)CCC(=O)C1C1C(=CC2C)O[C@@H]2OC3(CCCCC3)O[C@H]12 (some centres not stated)
inactive: [1] > 100 µM | [2] 48 µM | [3] > 88.7 µM | [4] > 100 µM | [5] 29.9 µM | [6] 19 µM | [7] 97.3 µM | [8] > 72.4 µM | [9] > 94.6 µM | [10] > 72.1 µM | [11] > 100 µM | [12] 99.8 µM | [13] 25.8 µM | [14] 34.8 µM | [15] > 90.4 µM | [16] 42.2 µM

O=C(NCCCCCCNC(=O)n1cc(F)c(=O)[nH]c1=O)NCCCOCCOCCOCCOCCOCCOCCOCCOCCOCCOCCOCCOCCOCCOCCOCCOCCOCCOCCOCCOCCOCCCNC(=O)C(O)C(O)C(O)C(O)CO (configuration not stated)
inactive: [1] 1.81 µM | [2] > 100 µM | [3] 28.8 µM | [4] 48.9 µM | [5] 43.9 µM | [6] 5.85 µM | [7] 16.3 µM | [17] 61.8 µM | [8] 32.8 µM | [18] 64.3 µM | [9] 60.1 µM | [10] 16.3 µM | [11] 6.95 µM | [12] 85.9 µM | [13] 20.8 µM | [19] 4.72 µM | [14] 55.5 µM | [15] 22.5 µM | [20] 55.1 µM | [16] 39.2 µM

CCCCCCCCCCC(=O)CC(=O)c1c(O)cccc1O
inactive: [1] 36.4 µM | [2] 26.1 µM | [3] 41.9 µM | [4] 36.6 µM | [6] 21.1 µM | [7] 53.7 µM | [8] 26.9 µM | [9] 46.8 µM | [10] 18.7 µM | [11] 30.9 µM | [12] 38.5 µM | [13] 16.3 µM | [14] 24.2 µM | [15] 41 µM | [16] 35.7 µM

CSC(=S)c1ccc(C(=S)SC)cc1
inactive: [1] > 100 µM | [2] > 100 µM | [3] > 100 µM | [4] > 100 µM | [6] > 100 µM | [8] > 100 µM | [9] > 100 µM | [10] > 100 µM | [11] > 100 µM | [12] > 100 µM | [13] > 100 µM | [14] > 100 µM | [15] > 100 µM | [16] > 100 µM

O=C1OC(c2ccccc2)=N/C1=C\c1cccc2ccccc12
inactive: [1] > 100 µM | [2] > 100 µM | [3] > 100 µM | [4] > 100 µM | [5] > 100 µM | [6] > 100 µM | [7] > 100 µM | [8] > 100 µM | [9] > 100 µM | [10] > 100 µM | [11] > 100 µM | [13] > 100 µM | [14] > 100 µM | [15] > 100 µM | [16] > 100 µM

[O-][S+]1c2ccccc2N=C(c2cccs2)CC1c1ccccc1O (configuration not stated)
inactive: [1] > 100 µM | [2] 37.2 µM | [3] 56.2 µM | [4] 70.3 µM | [5] > 100 µM | [6] > 100 µM | [7] > 100 µM | [8] 67.9 µM | [9] 16.5 µM | [10] > 100 µM | [11] 25.4 µM | [12] > 100 µM | [13] > 100 µM | [14] > 100 µM | [15] > 100 µM | [16] > 100 µM

CCCOC(=O)C1CCC(=O)N1C(=O)C(Cl)Cl (configuration not stated)
inactive: [2] > 100 µM | [3] > 100 µM | [4] > 100 µM | [5] > 100 µM | [6] > 100 µM | [7] > 100 µM | [8] > 100 µM | [9] > 100 µM | [10] > 100 µM | [11] > 100 µM | [12] > 100 µM | [13] > 100 µM | [14] > 100 µM | [15] > 100 µM | [16] > 100 µM

COC(=O)C(C(=O)C(=O)Nc1ccc([N+](=O)[O-])cc1[N+](=O)[O-])c1nc2ccc(Cl)cc2nc1O (configuration not stated)
inactive: [1] > 100 µM | [2] 72.4 µM | [3] > 100 µM | [4] > 100 µM | [5] > 100 µM | [6] 89.9 µM | [7] > 100 µM | [8] 77.8 µM | [9] > 100 µM | [10] > 100 µM | [11] 44.2 µM | [12] 40.8 µM | [13] > 100 µM | [14] 66.4 µM | [15] > 100 µM | [16] > 100 µM
